Test results published in patent US20040072824A1, “Methods and compositions for the treatment of cancer” (priority 2001, published 2004).
Where a name gives a salt, the structure may show the parent alone.

Experiments:
[1] = system: blastic cells from AML patients; test: Inhibition of viability of fresh leukemic cells (trypan blue exclusion); format: cell-based, human; conditions: day 3; for In Vitro Percent Inhibition of Viability, MEAN: MEAN over AML patients
Procedure: Samples for AML 1 through 5, AML 1 being the least and AML 5 being the most differentiated, were obtained. […] Cells were incubated with or without […] anti-histamine derivatives. Polaramine was included as a negative control. Cell counts were assessed by trypan blue exclusion test at day 3 after the incubation. Morphological analysis was performed using Wright-Giemsa staining on cytocentrifuge preparations. The results were expressed as % inhibition of growth as compared to negative control.

[2] = system: K562, U937, MDA-DB231, BT20 and MCF7 cell lines; test: Cytotoxic effects in multi-well plate, 6 days, ATP level (CellTiter-Glo); conditions: 2x10^-9 M to 2x10^-4 M
Procedure: In order to test the cytotoxic effects of various compounds, a test was developed in a multi-well plate. Two leukemic cell lines, namely K562 and U937, and three breast cancer cell lines, namely MDA-DB231, BT20 and MCF7 were used for this test.
The cells were seeded at low density and were left for 24 hours to recover and reach a new logarithmic phase of growth. Various concentrations of the compounds being tested, ranging from 2×10^−9 M to 2×10^−4 M, were added in triplicate. The mixture was incubated for 6 days, during which approximately 4 doublings of the cell population occurred, to allow the cells to reach subconfluence.
The viability of the cultured cells after the treatment by the compounds was determined by quantifying the level of ATP since the level of ATP is directly proportional to the number of viable cells present in the culture. The ATP level was quantified by using CellTiter-Glo™ (Promega) luminescent test for cell viability.

[3] = system: K562, U937, Jurkat, T47-D, MCF7, BT20 and 184B5 cell lines; test: Cytotoxicity in malignant and immortalized cell lines (manual counting, Alamar assay); format: cell-based; conditions: all of the cell lines tested
Procedure: These four compounds were added at different concentrations to cultures of various malignant cell lines and normal cells. The cell lines used for these tests were the following:
All leukemic cell lines were grown and used in logarithmic phase. After one day of treatment, the cells were isolated, counted and diluted in a regular growth medium to provide the cell density of about 75×10^3 cells/ml for reading on plates at 48 hours after the treatment, and […] for reading at 144 hours after the treatment.
Several dilutions of each compound tested were added to the wells (12 wells per plate, TPP), and 1 ml of cells from the parent solution was added per well after a line had been completed. The dilutions were made using the culture medium, and following dilutions were tested: control, which contained no compound of this invention; 1:100; 1:1,000; 1:2,000; 1:5,000; and 1:10,000. The starting concentrations for these dilutions were: 50 mg/ml for compound A; 10 mg/ml for compound B; 25 mg/ml for compound C; and 5 mg/ml for compound D. The results were analyzed by manual counting and Alamar reduced assay.
The cells were grown on their respective propagation medium and seeded 24 hours before the compounds are added. The cells were trypsinized, and 50,000 cells/well and 10,000 cells/well were seeded in order to read the plates at 48 hours and 144 hours after being treated by the compounds, respectively.
On the day of the treatment, the medium was replaced by 10 ml each of series dilution of the compounds, consisting of: control, which contained no compound of this invention; 1:100 dilution; 1:1,000 dilution; 1:2,000 dilution; and 1:5,000 dilution. The starting concentrations for these dilutions were: 50 mg/ml for compound A; 10 mg/ml for compound B; 25 mg/ml for compound C; and 5 mg/ml for compound D. The dilution was made using the growth medium.
A tested compound is regarded as being active in cytotoxicity where the percentage of surviving cells after the treatment with the compound is less than 30%.

OCCN1CCN(CC/C=C2/c3ccccc3Sc3ccc(C(F)(F)F)cc32)CC1 [i41, flupentixol]
In Vitro Percent Inhibition of Viability, MEAN ([1]; 10^-5 M): 50%
In Vitro Percent Inhibition of Viability, MEAN ([1]; 10^-6 M): 24%
In Vitro Percent Inhibition of Viability ([1]; patient ID 1, FAB AML1, 10^-5 M): 20%
In Vitro Percent Inhibition of Viability ([1]; patient ID 1, FAB AML1, 10^-6 M): 25%
In Vitro Percent Inhibition of Viability ([1]; patient ID 2, FAB AML1, 10^-5 M): 30%
In Vitro Percent Inhibition of Viability ([1]; patient ID 2, FAB AML1, 10^-6 M): 0%
In Vitro Percent Inhibition of Viability ([1]; patient ID 3, FAB AML2, 10^-5 M): 68%
In Vitro Percent Inhibition of Viability ([1]; patient ID 3, FAB AML2, 10^-6 M): 34%
In Vitro Percent Inhibition of Viability ([1]; patient ID 4, FAB AML2, 10^-5 M): 38%
In Vitro Percent Inhibition of Viability ([1]; patient ID 4, FAB AML2, 10^-6 M): 35%
In Vitro Percent Inhibition of Viability ([1]; patient ID 5, FAB AML2, 10^-5 M): 40%
In Vitro Percent Inhibition of Viability ([1]; patient ID 5, FAB AML2, 10^-6 M): 1%
In Vitro Percent Inhibition of Viability ([1]; patient ID 6, FAB AML3, 10^-5 M): 85%
In Vitro Percent Inhibition of Viability ([1]; patient ID 6, FAB AML3, 10^-6 M): 24%
In Vitro Percent Inhibition of Viability ([1]; patient ID 7, FAB AML3, 10^-5 M): 50%
In Vitro Percent Inhibition of Viability ([1]; patient ID 7, FAB AML3, 10^-6 M): 30%
In Vitro Percent Inhibition of Viability ([1]; patient ID 8, FAB AML3, 10^-5 M): 46%
In Vitro Percent Inhibition of Viability ([1]; patient ID 8, FAB AML3, 10^-6 M): 38%
In Vitro Percent Inhibition of Viability ([1]; patient ID 9, FAB AML3, 10^-5 M): 97%
In Vitro Percent Inhibition of Viability ([1]; patient ID 9, FAB AML3, 10^-6 M): 23%
In Vitro Percent Inhibition of Viability ([1]; patient ID 10, FAB AML4, 10^-5 M): 55%
In Vitro Percent Inhibition of Viability ([1]; patient ID 10, FAB AML4, 10^-6 M): 33%
In Vitro Percent Inhibition of Viability ([1]; patient ID 11, FAB AML5, 10^-5 M): 75%
In Vitro Percent Inhibition of Viability ([1]; patient ID 11, FAB AML5, 10^-6 M): 36%
In Vitro Percent Inhibition of Viability ([1]; patient ID 12, FAB AML5, 10^-5 M): 55%
In Vitro Percent Inhibition of Viability ([1]; patient ID 13, FAB AML5, 10^-5 M): 40%
In Vitro Percent Inhibition of Viability ([1]; patient ID 13, FAB AML5, 10^-6 M): 24%
In Vitro Percent Inhibition of Viability ([1]; patient ID 14, FAB AML5, 10^-5 M): 25%
In Vitro Percent Inhibition of Viability ([1]; patient ID 14, FAB AML5, 10^-6 M): 23%
In Vitro Percent Inhibition of Viability ([1]; patient ID 15, FAB AML5, 10^-5 M): 27%
In Vitro Percent Inhibition of Viability ([1]; patient ID 15, FAB AML5, 10^-6 M): 16%
cytotoxic effect group [2]: I

CN(C)CC[C@@H](c1ccc(Cl)cc1)c1ccccn1 [D, dexchlorpheniramine maleate]
cytotoxic activity [3]: little or no cytotoxic activity
cytotoxicity at 10 µM ([1]; Homo sapiens, 72 h, patient ID 14, FAB AML5, 10^-5 M, read-out: In Vitro Percent Inhibition of Viability): 9%
